From patent publication US20070281894A1, “PREPARATION AND UTILITY OF SUBSTITUTED ERYTHROMYCIN ANALOGS” (Auspex Pharmaceuticals, Inc., priority 2006, published 2007)

Conditions: topical or ocular, 5 microgram per mL
Experimental: Liver microsomal stability assays were conducted at 1 mg per mL liver microsome protein with an NADPH-generating system in 2% NaHCO3 (2.2 mM NADPH, 25.6 mM glucose 6-phosphate, 6 units per mL glucose 6-phosphate dehydrogenase and 3.3 mM MgCl2). Test compounds were prepared as solutions in 20% acetonitrile-water and added to the assay mixture (final assay concentration 5 microgram per mL) and incubated at 37° C. Final concentration of acetonitrile in the assay should be <1%. Aliquots (50 μL) were taken out at times 0, 15, 30, 45, and 60 minutes, and diluted with ice cold acetonitrile (200 μL) to stop the reactions. Samples were centrifuged at 12000 RPM for 10 minutes to precipitate proteins. Supernatants were transferred to microcentrifuge tubes and stored for LC/MS/MS analysis of the degradation half-life of the test compounds.

Increase in the degradation half-life as compared to the non-isotopically enriched drug (clarithromycin), 10-400%:
[2H]C([2H])([2H])O[C@]1(C)C[C@@H](C)C(=O)[C@H](C)[C@@H](O)[C@](C)(O)[C@@H](CC)OC(=O)[C@H](C)[C@@H](O[C@H]2C[C@@](C)(OC)[C@@H](O)[C@H](C)O2)[C@H](C)[C@H]1O[C@@H]1O[C@H](C)C[C@H](N(C)C)[C@H]1O [Example 8, d3-6-O-Methyl-Erythromycin A (d3-clarithromycin)]
[2H]C([2H])([2H])O[C@]1(C)C[C@@H](C)C(=O)[C@H](C)[C@@H](O)[C@](C)(O)[C@@H](CC)OC(=O)[C@H](C)[C@@H](O[C@H]2C[C@@](C)(OC)[C@@H](O)[C@H](C)O2)[C@H](C)[C@H]1O[C@@H]1O[C@H](C)C[C@H](N(C)C([2H])([2H])[2H])[C@H]1O [Example 11, d6-6-O-Methyl-Erythromycin A (d6-clarithromycin)]
[2H]C([2H])([2H])N(C)[C@H]1C[C@@H](C)O[C@@H](O[C@@H]2[C@@H](C)[C@H](O[C@H]3C[C@@](C)(OC)[C@@H](O)[C@H](C)O3)[C@@H](C)C(=O)O[C@H](CC)[C@@](C)(O)[C@H](O)[C@@H](C)C(=O)[C@H](C)C[C@@]2(C)OC)[C@@H]1O [Example 12, d3-6-O-Methyl-Erythromycin A (d3-clarithromycin)]
